For series [1], the system named is rumen-derived microbial communities. As to the kind of experiment: Inhibition of methane production in rumen-derived microbial culture. The class given is cell-based, dairy cattle. Particulars: for IC50: Bos taurus, read-out: concentration giving 50% suppression of methane production. The procedure: FIG. 5 illustrates the production and testing process of small organic halogenated compounds for inhibition of methanogenesis. In this example, the small organic halogenated compounds produced by VBPO are incubated in a microbial culture system derived from rumen fluid obtained from dairy cattle, to determine their relative abilities at inhibiting methane production. Briefly, 1,1-dibromoacetone, co-product bromoform and derivative dibromomethane, were separately added to the culture systems. The rate of methane production was monitored in each reaction (FIGS. 6A-6C).

Series [2] is described as follows: ciVCPO reaction velocity with PAA or H2O2 as peroxide source, Michaelis-Menten fit. Format: biochemical. From the text:
This Example describes a method for utilizing peracetic acid as a substrate for production of small, halogenated organic compounds in lieu of hydrogen peroxide using ciVCPO. PAAM is a readily available source of peracetic acid, consisting of 32% w/v peracetic acid and 6% w/v hydrogen peroxide. As peracetic acid is not an efficient two electron reductant, and unlike hydrogen peroxide, cannot produce oxygen in the presence of hypochlorous acid and catalytic quantities of chloride ions, hydrogen peroxide must be removed to avoid oxygen production employing the enzyme catalase, derived from bovine liver.
The reaction velocity is fitted according to Michaelis-Menten kinetics to give v=f([PAA] or [H2O2]).

[3] abbreviates: rumen-derived microbial communities.

Read-outs that look alike come from different tables or passages of the source.

Data on four molecules can be found in patent US20250346931A1, “METHODS FOR PRODUCING HALOGENATED COMPOUNDS” (BIGELOW LABORATORY FOR OCEAN SCIENCES, priority 2022, published 2025).

In the case of `CC(=O)C(Br)Br` [1,1-dibromoacetone], in series [1], the IC50 is 125000 nM. In series [1] (compared with bromoform and dibromomethane), the “relative effectiveness for inhibiting methane production among compounds screened” value was “least effective”. As for `BrC(Br)Br` [bromoform, reference compound], in series [1] (setting [3]), the IC50 amounted to 200 nM. The same measure, in the same setting: under `BrCBr` [dibromomethane, reference compound] stands 150 nM.

B1: ciVCPO: vanadium chloroperoxidase from Curvularia inaequalis produced in Pichia pastoris (protein, UniProt P49053 1-609, looked up)
Vanadium chloroperoxidase: MGSVTPIPLPKIDEPEEYNTNYILFWNHVGLELNRVTHTVGGPLTGPPLSARALGMLHLAIHDAYFSICPPTDFTTFLSPDTENAAYRLPSPNGANDARQAVAGAALKMLSSLYMKPVEQPNPNPGANISDNAYAQLGLVLDRSVLEAPGGVDRESASFMFGEDVADVFFALLNDPRGASQEGYHPTPGRYKFDDEPTHPVVLIPVDPNNPNGPKMPFRQYHAPFYGKTTKRFATQSEHFLADPPGLRSNADETAEYDDAVRVAIAMGGAQALNSTKRSPWQTAQGLYWAYDGSNLIGTPPRFYNQIVRRIAVTYKKEEDLANSEVNNADFARLFALVDVACTDAGIFSWKEKWEFEFWRPLSGVRDDGRPDHGDPFWLTLGAPATNTNDIPFKPPFPAYPSGHATFGGAVFQMVRRYYNGRVGTWKDDEPDNIAIDMMISEELNGVNRDLRQPYDPTAPIEDQPGIVRTRIVRHFDSAWELMFENAISRIFLGVHWRFDAAAARDILIPTTTKDVYAVDNNGATVFQNVEDIRYTTRGTREDPEGLFPIGGVPLGIEIADEIFNNGLKPTPPEIQPMPQETPVQKPVGQQPVKGMWEEEQAPVVKEAP
Consider B1, for which, in series [2] (FIG. 13 legend), the “Vmax, PAA relative to Vmax, H2O2” value is “approximately twice”. Also, the “vmax and Km with PAA as substrate compared with hydrogen peroxide” value in series [2] (constant NaCl 150 mM) was “higher vmax and Km than hydrogen peroxide”.
